Entries after “also recorded” stand apart in the source; their conditions may differ. Read-outs that look alike come from different tables or passages of the source. Marks after values point to notes of the source that are not given here. No end group written: not given here.
Tests used:
[1] = molecular target: T1, His6-tagged IGS5 ectodomain (Homo sapiens, UniProt Q495T6); assay: IGS5 enzyme inhibition assay (fluorescence-quenched big-ET-1 analog, HPLC); format: biochemical; settings: for IC50: conversion of labeled fluorescent big-ET-1 analog
T1 construct: Enzyme: IGS-5 (sol hu)(his)6; or: His6-tagged IGS5 ectodomain;; made in house; host or cells: Sf9 insect cells, recombinant baculovirus IGBV73, purified from culture supernatant
T1 sequence (Q495T6 49-779 limits assumed): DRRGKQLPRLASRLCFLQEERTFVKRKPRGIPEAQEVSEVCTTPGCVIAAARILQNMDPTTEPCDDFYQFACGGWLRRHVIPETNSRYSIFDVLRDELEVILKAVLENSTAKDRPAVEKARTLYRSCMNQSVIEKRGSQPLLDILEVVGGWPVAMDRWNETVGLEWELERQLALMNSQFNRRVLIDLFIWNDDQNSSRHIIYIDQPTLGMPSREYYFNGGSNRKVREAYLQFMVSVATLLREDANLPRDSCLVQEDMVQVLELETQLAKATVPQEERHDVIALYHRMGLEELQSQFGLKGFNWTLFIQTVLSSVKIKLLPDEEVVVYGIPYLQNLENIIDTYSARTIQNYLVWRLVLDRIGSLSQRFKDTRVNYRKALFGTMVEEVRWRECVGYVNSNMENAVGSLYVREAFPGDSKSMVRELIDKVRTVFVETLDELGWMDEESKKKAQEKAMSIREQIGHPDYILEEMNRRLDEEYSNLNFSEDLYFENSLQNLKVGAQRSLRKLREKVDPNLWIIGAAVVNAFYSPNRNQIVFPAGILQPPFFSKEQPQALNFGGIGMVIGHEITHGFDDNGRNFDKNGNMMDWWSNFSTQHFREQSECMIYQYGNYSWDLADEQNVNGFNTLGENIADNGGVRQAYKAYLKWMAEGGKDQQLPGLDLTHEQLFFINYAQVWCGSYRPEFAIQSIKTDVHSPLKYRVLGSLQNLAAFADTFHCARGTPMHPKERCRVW
Description: (§1) The enzymatic activity of IGS5 polypeptides of the invention was tested with regard to the metabolism of biologically active peptides. In particular it was tested whether these IGS5 polypeptides may act on a variety of vasoactive peptides known in the state of the art e.g. such like atrial natriuretic peptide (ANP), bradykinin, big-endothelin (big-ET-1), endothelin (ET-1), substance P and angiotensin-1. In the context of the present invention in particular it was tested whether the IGS5 ectodomain, which is a novel human metalloprotease, hydrolyzes said vasoactive peptides. For comparison the assay was also performed for a known member of the metalloprotease family which was described earlier as soluble secreted endopeptidase (SEP) by Emoto et al. (J. Biol. Chem., Vol. 274 (1999): pp. 32469-32477). Furthermore, it was tested whether the activity of IGS5 to convert a big-ET-1 analog (the so-called 17 aa big-ET-1) may be inhibited by reference compounds that are used to determine the inhibition properties with regard to enzymes having ECE and/or NEP-characteristics.
Enzyme: IGS-5 (sol hu)(his)6; or: His6-tagged IGS5 ectodomain;
stock solution: 53 μg/ml in 20 mM HEPES pH 7.2, 5% glycerol, 0.005% Tween20, 100 mM NaCl, purity >99%; storage at 4° C.
working solution: stock solution diluted with assay buffer to 10 μg/ml.
Substrate: Mca-Asp-Ile-Ala-Trp-Phe-Dpa-[…]COOH;
Fluorescence-quenched big-ET-1 analog;
Assay buffer: 100 mM Tris pH 7.0, 250 mM NaCl.
All test compounds were dissolved in DMSO at 10 mM and were further diluted with assay buffer.
A quantity of 70 μl of the assay buffer, of 10 μl enzyme working solution and of 10 μl test compound solution were mixed in an Eppendorf vial and preincubated at 37° C. for 15 minutes. Then, 10 μl substrate stock solution was added and the reaction mixture was incubated at 37° C. for 60 minutes to allow for enzymatic hydrolysis. Subsequently the enzymatic reaction was terminated by heating at 95° C. for 5 minutes. After centrifugation (Heraeus Biofuge B, 3 min) the supernatant was subjected to HPLC analysis.
In order to separate the remaining substrate from the cleavage products reversed phase HPLC technique was used with a CC 125/4 Nucleosil 300/5 C18 RP column and a CC 8/4 Nucleosil 100/5 C18 precolumn (commercially available from Macherey-Nagel, Düren, Germany). Thus, 60 μl of the reaction samples obtained in Example 7b were injected into the HPLC, and the column was eluted at a flow rate of 1 ml/min by applying the following gradient and solutions: […]
The increasing fluorescence signal of the HPLC-peak of the peptide with the unquenched Mca-fluorophor after hydrolysis was taken as the basis for any calculation.
This signal was compared for the samples with and without inhibitor and % inhibition was calculated on basis of the respective peak areas.
% inhib=100*(1−Ainhib/Acontrol)
All samples were run in duplicate and mean values were used.
(§2) Furthermore, the potency of metalloprotease inhibitor compounds and reference compounds to suppress the conversion of big-ET to ET-1 was examined as described in this example 7, using a labeled fluorescent big-ET-1 analog. The procedures applied in the enzyme assays are described above in the examples 4 with regard to IGS5, in example 5 with regard to NEP, and in example 6 with regard to ECE.

IGS5 polypeptide = molecular target: T2, IGS5 polypeptide (Homo sapiens, UniProt Q495T6); assay: Hydrolysis of vasoactive peptides by IGS5 polypeptides; format: biochemical; settings: 0.5 μM substrate, 2 h, 37° C.
T2 construct: Enzyme: IGS-5 (sol hu)(his)6; or: His6-tagged IGS5 ectodomain;; made in house; host or cells: Sf9 insect cells, recombinant baculovirus IGBV73, purified from culture supernatant
T2 sequence (Q495T6 49-779 limits assumed): T1 sequence (Q495T6 49-779 limits assumed)
Description: as §1

[2] = molecular target: T3, SEP (soluble secreted endopeptidase) (Mus musculus, UniProt Q9JLI3); settings: 10 μg SEP; 0.5 μM substrate; 12 h, 37° C.; cited from earlier work
T3 sequence (Q9JLI3 63-765 limits assumed): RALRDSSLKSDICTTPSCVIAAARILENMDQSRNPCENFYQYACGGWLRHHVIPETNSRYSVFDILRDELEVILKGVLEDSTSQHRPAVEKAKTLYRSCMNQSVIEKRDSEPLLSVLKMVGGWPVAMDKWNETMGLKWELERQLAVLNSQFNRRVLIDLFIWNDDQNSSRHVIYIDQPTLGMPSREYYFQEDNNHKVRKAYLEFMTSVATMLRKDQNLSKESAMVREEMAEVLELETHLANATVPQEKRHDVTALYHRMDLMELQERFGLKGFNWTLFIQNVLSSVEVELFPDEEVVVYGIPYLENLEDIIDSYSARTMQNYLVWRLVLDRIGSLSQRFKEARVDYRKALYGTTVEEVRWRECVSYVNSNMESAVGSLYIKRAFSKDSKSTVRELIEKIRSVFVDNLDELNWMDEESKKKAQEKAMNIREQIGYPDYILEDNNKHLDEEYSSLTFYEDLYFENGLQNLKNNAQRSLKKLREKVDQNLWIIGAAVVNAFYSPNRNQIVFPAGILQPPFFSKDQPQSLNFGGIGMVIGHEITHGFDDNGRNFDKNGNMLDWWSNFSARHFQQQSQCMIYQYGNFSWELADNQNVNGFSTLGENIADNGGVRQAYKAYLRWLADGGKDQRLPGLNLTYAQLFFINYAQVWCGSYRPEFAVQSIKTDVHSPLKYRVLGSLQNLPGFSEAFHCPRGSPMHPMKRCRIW

[3] = molecular target: Neutral endopeptidase (E.C. 3.4.24.11) (Sus scrofa, UniProt A0A4X1SQE6); assay: NEP enzyme inhibition assay (methionin-enkephalin substrate, HPLC); format: biochemical, pig
Sequence of Neutral endopeptidase (E.C. 3.4.24.11) (A0A4X1SQE6 entry or part of it): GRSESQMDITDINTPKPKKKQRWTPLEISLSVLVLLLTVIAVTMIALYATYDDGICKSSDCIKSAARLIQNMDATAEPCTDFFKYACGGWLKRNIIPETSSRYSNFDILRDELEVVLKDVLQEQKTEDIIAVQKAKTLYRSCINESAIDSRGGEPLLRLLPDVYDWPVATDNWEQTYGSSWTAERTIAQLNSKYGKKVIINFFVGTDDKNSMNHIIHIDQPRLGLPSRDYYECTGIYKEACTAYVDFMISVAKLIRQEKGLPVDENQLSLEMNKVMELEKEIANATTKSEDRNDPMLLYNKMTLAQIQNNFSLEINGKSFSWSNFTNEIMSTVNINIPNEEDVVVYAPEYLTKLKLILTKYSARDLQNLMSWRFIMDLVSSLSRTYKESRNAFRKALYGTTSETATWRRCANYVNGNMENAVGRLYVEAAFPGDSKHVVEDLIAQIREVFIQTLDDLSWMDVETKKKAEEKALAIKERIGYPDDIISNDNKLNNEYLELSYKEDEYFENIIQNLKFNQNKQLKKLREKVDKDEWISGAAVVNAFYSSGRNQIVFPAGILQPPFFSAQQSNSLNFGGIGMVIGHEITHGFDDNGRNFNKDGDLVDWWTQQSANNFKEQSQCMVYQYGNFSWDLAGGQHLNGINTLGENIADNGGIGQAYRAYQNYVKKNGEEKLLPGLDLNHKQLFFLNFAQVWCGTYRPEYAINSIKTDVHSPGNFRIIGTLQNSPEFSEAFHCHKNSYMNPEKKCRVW
Description: Neutral endopeptidase (E.C. 3.4.24.11) was prepared from pig kidney cortex according to the method of Gee et al. (Biochem J 1985 May 15;228(1):119-26) and purified as reported by Relton et al. (Biochem J 1983 Dec. 1;215(3):519-23). For the enzyme inhibition assay 10 ng of the purified enzyme, 20 μM substrate (methionin-enkephalin) and various inhibitor concentrations were used. The assay buffer was 50 mM Tris-(hydroxymethyl)-aminomethan/HCl pH 7.4, the total assay volume was 100 μl. After a preincubation period of 5 min of enzyme and inhibitor, the substrate was added and subsequently a second incubation phase for enzyme induced substrate hydrolysis at 37° C. for 30 min was initiated. The enzymatic reaction was stopped by heating at 95° C. for 5 min. After centrifugation the supernatant was subjected to HPLC. The products of enzymatic substrate hydrolysis were separated from the native substrate by HPLC technique and the inhibitor potency calculated by comparing the peak areas of the products with the peak area of native substrate for both, the samples with and without inhibitor (control). Blanks without enzyme, controls without inhibitor, samples with inhibitor solvent instead of the inhibitor and samples with a standard inhibitor were added to each assay run.
as §2

[4] = tested on: patients with congestive heart failure; assay: Open, baseline controlled pilot trial in patients with congestive heart failure; format: in vivo, human; settings: following compound Ia-2 administration; p<0.001
Description: To proof the concept of clinical efficacy and safety of compound Ia-2 in man, 6 clinical trials were conducted in healthy volunteers and 2 proof of concept trials were conducted in patients: One randomized, placebo-controlled double-blind trial in patients with hypertension (N=191) and one open, baseline controlled pilot trial in patients with congestive heart failure (N=29). […] In the Intent-to-treat patient population (ITT), office diastolic blood pressure versus placebo decreased by −6.9 mmHg (last value under treatment; p<0.001) and office systolic blood pressure versus placebo decreased by −9.2 mmHg (last value under treatment; p=0.003) at the highest dose investigated (200 mg bid).

Compound	% Hydrolysis by IGS5 Polypeptide (IGS5 polypeptide; 100 μg IGS5 polypeptide)	% Hydrolysis by SEP (Emoto et al.) [2] [%]	further results
Cc1nn(-c2ccccc2)c(NC(=O)NS(=O)(=O)c2ccc(Cl)cc2)c1C#N.[Na]	–	–	inhibition of IGS5 activity (in words) ([1]; monosodium salt): no inhibition of IGS5; also recorded: do not affect the activity of IGS5
CC[C@H](C)[C@@H]1NC(=O)[C@H](CCCNC(=N)N)NC(=O)[C@H](CC(=O)O)NC(=O)[C@H](CCSC)NC(=O)[C@H](CCCNC(=N)N)NC(=O)CNC(=O)CNC(=O)[C@H](Cc2ccccc2)NC(=O)[C@@H](NC(=O)[C@H](CO)NC(=O)[C@H](CO)NC(=O)[C@H](CCCNC(=N)N)NC(=O)[C@H](CCCNC(=N)N)NC(=O)[C@H](CC(C)C)NC(=O)[C@@H](N)CO)CSSC[C@@H](C(=O)N[C@@H](CC(N)=O)C(=O)N[C@@H](CO)C(=O)N[C@@H](Cc2ccccc2)C(=O)N[C@@H](CCCNC(=N)N)C(=O)N[C@@H](Cc2ccc(O)cc2)C(=O)O)NC(=O)CNC(=O)[C@H](CC(C)C)NC(=O)CNC(=O)[C@H](CO)NC(=O)[C@H](CCC(N)=O)NC(=O)[C@H](C)NC(=O)CNC1=O [ANP]	5%	>95	% Hydrolysis by IGS5 Polypeptide (IGS5 polypeptide; 500 μg IGS5 polypeptide): 80%
CC[C@H](C)[C@H](NC(=O)[C@H](CC(=O)O)NC(=O)[C@H](CC(C)C)NC(=O)[C@H](Cc1c[nH]cn1)NC(=O)[C@@H]1CSSC[C@H](N)C(=O)N[C@@H](CO)C(=O)N[C@H]2CSSC[C@H](NC(=O)[C@H](CCC(=O)O)NC(=O)[C@H](CCCCN)NC(=O)[C@H](CC(=O)O)NC(=O)[C@H](CCSC)NC(=O)[C@H](CC(C)C)NC(=O)[C@H](CO)NC(=O)[C@H](CO)NC2=O)C(=O)N[C@@H](C(C)C)C(=O)N[C@@H](Cc2ccc(O)cc2)C(=O)N[C@@H](Cc2ccccc2)C(=O)N1)C(=O)N[C@H](C(=O)N[C@@H](Cc1c[nH]c2ccccc12)C(=O)O)[C@@H](C)CC [ET-1]	<30%	92	–
CC(C)C[C@H](NP(=O)(O)O[C@@H]1O[C@@H](C)[C@H](O)[C@@H](O)[C@H]1O)C(=O)N[C@@H](Cc1c[nH]c2ccccc12)C(=O)O [Phosphoramidon]	–	–	inhibition of IGS5 activity (in words) [1]: inhibits IGS5 with high potency; IC50 [1]: 18 nM; IC50 [3]: 2 nM
O=C(O)CN1C(=O)[C@@H](NC(=O)C2(C[C@@H](CCc3ccccc3)C(=O)O)CCCC2)CCc2ccccc21 [compound Ia-1, (3S,2′R)-3-{1-[2′-carboxy-4′-phenylbutyl]-cyclopentane-1-carbonylamino}-2,3,4,5-tetrahydro-2-oxo-1H-1-benzazepine-1-acetic acid]	–	–	correlation between log plasma concentrations of compound Ia-1 and plasma levels of big-ET [4]: significant positive correlation
Cc1nn(-c2ccccc2)c(NC(=O)NS(=O)(=O)c2ccc(Cl)cc2)c1C#N.[Na] [monosodium salt]	–	–	IC50 [1]: > 10000 nM; IC50 ([3]; 20 μM methionin-enkephalin, read-out: NEP IC50): > 1000 nM
Angiotensin 1: vasoactive peptide tested as substrate (DRVYIHPFHL; Angiotensin-1; UniProt P01019 25-34, looked up)	15*** %	>95	–
Mca-Asp-Ile-Ala-Trp-Phe-Dpa-Thr-Pro-Glu-His-Val-Val-Pro-Tyr-Gly-Leu-Gly-COOH [17 aa big-ET-1]	41%	–	–
RPPGFSPFR [Bradykinin]	100%	–	% Hydrolysis by IGS5 Polypeptide (IGS5 polypeptide; 10 μg IGS5 polypeptide): 62%
Substance P: vasoactive peptide tested as substrate	100%	>95	–
tert-Butyl (3S)-3-(1-benzylethylphosphonomethyl-cyclopentane-1-carbonylamino)-2,3,4,5-tetrahydro-2-oxo-1H-1-benzazepine-1-acetate [compound Ib-8]	–	–	IC50 [1]: 2.9 nM

From patent US20040162345A1, “Compounds with NEP/MP-inhibitory activity and uses thereof” (Solvay Pharmaceuticals GmbH, priority 2001, published 2004)
